From US12281149B2, “Modulators of G-protein coupled receptors” (priority 2021, dated 2025) come the findings set out here.

What all share (assay type): cell-based
Assay [1] deals with T1, GLP-1 receptor (Homo sapiens, UniProt P43220). In words: HitHunter cAMP assay, GLP-1 receptor. Conditions: for EC50: CHO cells stably expressing human GLP-1 receptor, cAMP accumulation, 30 min, read-out: EC50 GLP-1R; for Emax: CHO cells, cAMP, normalized to maximum signal from GLP-1 (high) and DMSO (low), read-out: Emax GLP-1R.
In assay [2] the target is T2, GIP receptor (Homo sapiens, UniProt P48546).
T2 sequence (P48546 22-466): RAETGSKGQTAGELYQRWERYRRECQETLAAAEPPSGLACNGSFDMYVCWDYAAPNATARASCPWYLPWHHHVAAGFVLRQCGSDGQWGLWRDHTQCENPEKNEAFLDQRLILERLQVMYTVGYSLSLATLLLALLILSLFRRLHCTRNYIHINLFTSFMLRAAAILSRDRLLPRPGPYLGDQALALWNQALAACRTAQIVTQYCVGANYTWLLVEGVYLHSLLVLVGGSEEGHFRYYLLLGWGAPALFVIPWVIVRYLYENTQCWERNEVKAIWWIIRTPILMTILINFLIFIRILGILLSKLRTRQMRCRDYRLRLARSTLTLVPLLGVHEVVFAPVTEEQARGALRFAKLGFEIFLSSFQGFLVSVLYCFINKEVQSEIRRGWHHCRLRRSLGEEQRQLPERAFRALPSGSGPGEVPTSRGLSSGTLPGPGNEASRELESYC
In words: HitHunter cAMP assay, GIP receptor. As to conditions: for EC50: CHO cells stably expressing GIP receptor, cAMP accumulation, 30 min, read-out: EC50 GIP-1R; for Emax: CHO cells, cAMP, normalized to maximum signal from GIP (high) and DMSO (low), read-out: Emax GIP-1R.

Assay [3] deals with T2, GIP receptor. Description: PathHunter β-arrestin assay, GIP receptor. Further details: host or cells: PathHunter CHO-K1 GIPR β-Arrestin Cell Line. Conditions: β-arrestin-2 recruitment, PathHunter CHO-K1 GIPR β-Arrestin Cell Line, 90 min at 37° C.; normalized to GIP; read-out: GIPR β Arrestin EC50.
For assay [4], the target named is T1, GLP-1 receptor. Description: PathHunter β-arrestin assay, GLP-1 receptor. Further details: host or cells: PathHunter CHO-K1 GLP1R β-Arrestin Cell Line. Conditions: β-arrestin-2 recruitment, PathHunter CHO-K1 GLP1R β-Arrestin Cell Line, 90 min at 37° C.; normalized to GLP-1; read-out: GLP-1R β Arrestin EC50.

The structures appear in SMILES notation. *1 amine or outer side, *2 acyl side, *3 side chain or, on linkers, in order; H or OH if unused. Where a SMILES comes first, the peptide text is derived from it. Side-chain parts run from the residue outwards. [ ]: non-standard residue; d: D form. The star is where a group is joined. Isobutyryl(2-(3-CN-5-F-Ph)) = CC(C)(C(=O)*)c1cc(F)cc(C#N)c1; Ala(1H-tetrazol-5-yl) = N[C@@H](Cc1nnn[nH]1)C(=O)O; C20 diacid = O=C(O)CCCCCCCCCCCCCCCCCCC(=O)*; X31 = CC(C)(C(=S)NCCC(=O)*)c1cc(F)cc(C#N)c1; X73 = CC(C)(C(=S)NCCC(=O)*)c1ccc(F)c(F)c1; αMePhe(2-F) = C[C@](N)(Cc1ccccc1F)C(=O)O; γGlu = O=C(O)[C@H](CCC(=O)[*:2])N[*:1]; X9 = CC(C)(C(=O)*)c1cc(F)cc(C(=O)O)c1; X27 = O=C1CC(C(=O)*)(c2ccccc2)CN1; AEEA = NCCOCCOCC(=O)O; Aib = CC(C)(N)C(=O)O; βAla = NCCC(=O)O

T1 sequence (P43220 24-463): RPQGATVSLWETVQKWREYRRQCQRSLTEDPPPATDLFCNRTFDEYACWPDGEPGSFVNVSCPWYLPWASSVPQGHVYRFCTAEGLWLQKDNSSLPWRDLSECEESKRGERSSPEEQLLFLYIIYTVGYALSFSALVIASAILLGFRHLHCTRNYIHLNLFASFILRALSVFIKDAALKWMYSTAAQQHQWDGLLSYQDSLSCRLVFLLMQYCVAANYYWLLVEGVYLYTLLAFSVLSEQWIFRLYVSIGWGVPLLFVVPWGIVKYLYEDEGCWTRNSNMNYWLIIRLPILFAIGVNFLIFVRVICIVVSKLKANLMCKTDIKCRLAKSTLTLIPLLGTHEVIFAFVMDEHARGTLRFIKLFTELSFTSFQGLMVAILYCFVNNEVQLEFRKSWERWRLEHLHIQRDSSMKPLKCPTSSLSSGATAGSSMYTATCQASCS

In the case of `CC[C@H](C)[C@H](NC(=O)[C@H](CC(C)C)NC(=O)[C@H](Cc1c[nH]c2ccccc12)NC(=O)[C@H](CCC(N)=O)NC(=O)[C@@H](NC(=O)[C@H](Cc1ccccc1)NC(=O)[C@H](C)NC(=O)[C@H](CCCCNC(=O)COCCOCCNC(=O)COCCOCCNC(=O)CC[C@H](NC(=O)CCCCCCCCCCCCCCCCCCC(=O)O)C(=O)O)NC(=O)[C@H](CCC(N)=O)NC(=O)[C@H](C)NC(=O)[C@@H](NC(=O)[C@H](CCCCN)NC(=O)[C@H](CC(=O)O)NC(=O)[C@H](CC(C)C)NC(=O)C(C)(C)NC(=O)[C@@H](NC(=O)[C@H](CO)NC(=O)[C@H](Cc1ccc(O)cc1)NC(=O)[C@H](CC(=O)O)NC(=O)[C@H](CO)NC(=O)[C@@H](NC(=O)[C@H](Cc1ccccc1)NC(=O)[C@@H](NC(=O)CNC(=O)[C@H](CCC(=O)O)NC(=O)CCNC(=S)C(C)(C)c1cc(F)cc(C#N)c1)[C@@H](C)O)[C@@H](C)O)[C@@H](C)CC)[C@@H](C)CC)C(C)C)C(=O)N[C@@H](C)C(=O)NCC(=O)NCC(=O)N1CCC[C@H]1C(=O)N[C@@H](CO)C(=O)N[C@@H](CO)C(=O)NCC(=O)N[C@@H](C)C(=O)N1CCC[C@H]1C(=O)N1CCC[C@H]1C(=O)N1CCC[C@H]1C(=O)N[C@@H](CO)C(N)=O` [Compound 135] (X31-EGTFTSDYSI[Aib]LDKIAQK([AEEA-AEEA-γGlu-C20 diacid])AFVQWLIAGGPSSGAPPPS-NH2), the EC50 in assay [1] is 0.0001 to 0.001 µM; in assay [2], 0.01 to 0.1 µM; in assay [3], over 1 µM; in assay [4], over 1 µM. Also, the Emax in assay [1] worked out at 99%; in assay [2], 87%.

For `CC[C@H](C)[C@H](NC(=O)[C@H](CC(C)C)NC(=O)[C@H](Cc1c[nH]c2ccccc12)NC(=O)[C@H](CCC(N)=O)NC(=O)[C@@H](NC(=O)[C@H](Cc1ccccc1)NC(=O)[C@H](C)NC(=O)[C@H](CCCCNC(=O)COCCOCCNC(=O)COCCOCCNC(=O)CC[C@H](NC(=O)CCCCCCCCCCCCCCCCCCC(=O)O)C(=O)O)NC(=O)[C@H](CCC(N)=O)NC(=O)[C@H](C)NC(=O)[C@@H](NC(=O)[C@H](CCCCN)NC(=O)[C@H](CC(=O)O)NC(=O)[C@H](CC(C)C)NC(=O)C(C)(C)NC(=O)[C@@H](NC(=O)[C@H](CO)NC(=O)[C@H](Cc1ccc(O)cc1)NC(=O)[C@H](CC(=O)O)NC(=O)[C@H](CO)NC(=O)[C@@H](NC(=O)[C@H](Cc1ccccc1)NC(=O)[C@@H](NC(=O)CNC(=O)[C@H](Cc1nn[nH]n1)NC(=O)CCNC(=O)C(C)(C)c1cc(F)cc(C#N)c1)[C@@H](C)O)[C@@H](C)O)[C@@H](C)CC)[C@@H](C)CC)C(C)C)C(=O)N[C@@H](C)C(=O)NCC(=O)NCC(=O)N1CCC[C@H]1C(=O)N[C@@H](CO)C(=O)N[C@@H](CO)C(=O)NCC(=O)N[C@@H](C)C(=O)N1CCC[C@H]1C(=O)N1CCC[C@H]1C(=O)N1CCC[C@H]1C(=O)N[C@@H](CO)C(N)=O` [Compound 136] ({Isobutyryl(2-(3-CN-5-F-Ph))-βAla}-[Ala(1H-tetrazol-5-yl)]GTFTSDYSI[Aib]LDKIAQK([AEEA-AEEA-γGlu-C20 diacid])AFVQWLIAGGPSSGAPPPS-NH2), the EC50 in assay [1] was under 0.0001 µM; in assay [2] it was 0.001 to 0.01 µM; in assay [3], under 1 µM; in assay [4], over 1 µM. Besides, the values for the Emax in assay [1] and in assay [2] were 101% and 99%, respectively.

Take `CC[C@H](C)[C@H](NC(=O)[C@H](CC(C)C)NC(=O)[C@H](Cc1c[nH]c2ccccc12)NC(=O)[C@H](CCC(N)=O)NC(=O)[C@@H](NC(=O)[C@H](Cc1ccccc1)NC(=O)[C@H](C)NC(=O)[C@H](CCCCNC(=O)COCCOCCNC(=O)COCCOCCNC(=O)CC[C@H](NC(=O)CCCCCCCCCCCCCCCCCCC(=O)O)C(=O)O)NC(=O)[C@H](CCC(N)=O)NC(=O)[C@H](C)NC(=O)[C@@H](NC(=O)[C@H](CCCCN)NC(=O)[C@H](CC(=O)O)NC(=O)[C@H](CC(C)C)NC(=O)C(C)(C)NC(=O)[C@@H](NC(=O)[C@H](CO)NC(=O)[C@H](Cc1ccc(O)cc1)NC(=O)[C@H](CC(=O)O)NC(=O)[C@H](CO)NC(=O)[C@@H](NC(=O)[C@H](Cc1ccccc1)NC(=O)[C@@H](NC(=O)CNC(=O)[C@H](CCC(=O)O)NC(=O)CCNC(=S)C(C)(C)c1ccc(F)c(F)c1)[C@@H](C)O)[C@@H](C)O)[C@@H](C)CC)[C@@H](C)CC)C(C)C)C(=O)N[C@@H](C)C(=O)NCC(=O)NCC(=O)N1CCC[C@H]1C(=O)N[C@@H](CO)C(=O)N[C@@H](CO)C(=O)NCC(=O)N[C@@H](C)C(=O)N1CCC[C@H]1C(=O)N1CCC[C@H]1C(=O)N1CCC[C@H]1C(=O)N[C@@H](CO)C(N)=O` [Compound 137] (X73-EGTFTSDYSI[Aib]LDKIAQK([AEEA-AEEA-γGlu-C20 diacid])AFVQWLIAGGPSSGAPPPS-NH2): the EC50 in assay [1] was 0.0001 to 0.001 µM; in assay [2], 0.01 to 0.1 µM; in assay [3], over 1 µM; in assay [4], over 1 µM. For the same compound, the Emax in assay [1] was found to be 99%; in assay [2], 87%.

Take `CC[C@H](C)[C@H](NC(=O)[C@H](CO)NC(=O)[C@H](CCCCNC(=O)COCCOCCNC(=O)COCCOCCNC(=O)CC[C@H](NC(=O)CCCCCCCCCCCCCCCCCCC(=O)O)C(=O)O)NC(=O)[C@H](CC(=O)O)NC(=O)[C@H](CO)NC(=O)[C@@H](NC(=O)[C@](C)(Cc1ccccc1F)NC(=O)[C@@H](NC(=O)CNC(=O)[C@H](CCC(=O)O)NC(=O)CCNC(=O)C1(c2ccccc2)CNC(=O)C1)[C@@H](C)O)[C@@H](C)O)C(=O)N[C@@H](Cc1ccc(O)cc1)C(=O)N[C@@H](CC(C)C)C(=O)N[C@@H](CC(=O)O)C(=O)N[C@@H](CCCCN)C(=O)N[C@@H](CCC(N)=O)C(=O)N[C@@H](C)C(=O)N[C@@H](C)C(=O)NC(C)(C)C(=O)N[C@@H](CCC(=O)O)C(=O)N[C@@H](Cc1ccccc1)C(=O)N[C@H](C(=O)N[C@@H](CC(N)=O)C(=O)N[C@@H](Cc1c[nH]c2ccccc12)C(=O)N[C@@H](CC(C)C)C(=O)N[C@@H](CC(C)C)C(=O)N[C@@H](C)C(=O)NCC(=O)NCC(=O)N1CCC[C@H]1C(=O)N[C@@H](CO)C(=O)N[C@@H](CO)C(=O)NCC(=O)N[C@@H](C)C(=O)N1CCC[C@H]1C(=O)N1CCC[C@H]1C(=O)N1CCC[C@H]1C(=O)N[C@@H](CO)C(N)=O)C(C)C` (stereo partly drawn) [Compound 138] ({X27-βAla}-EGT[αMePhe(2-F)]TSDK([AEEA-AEEA-γGlu-C20 diacid])SIYLDKQAA[Aib]EFVNWLLAGGPSSGAPPPS-NH2): the EC50 is under 0.0001 µM in assay [1], 0.0001 to 0.001 µM in assay [2], under 1 µM in assay [3] and under 1 µM in assay [4]. Besides, the Emax in assay [1] and in assay [2] was 100% in each case.

For `CC[C@H](C)[C@H](NC(=O)[C@H](CC(C)C)NC(=O)[C@H](Cc1c[nH]c2ccccc12)NC(=O)[C@H](CCC(N)=O)NC(=O)[C@@H](NC(=O)[C@H](Cc1ccccc1)NC(=O)[C@H](C)NC(=O)[C@H](CCCCNC(=O)COCCOCCNC(=O)COCCOCCNC(=O)CC[C@H](NC(=O)CCCCCCCCCCCCCCCCCCC(=O)O)C(=O)O)NC(=O)[C@H](CCC(N)=O)NC(=O)[C@H](C)NC(=O)[C@@H](NC(=O)[C@H](CCCCN)NC(=O)[C@H](CC(=O)O)NC(=O)[C@H](CC(C)C)NC(=O)C(C)(C)NC(=O)[C@@H](NC(=O)[C@H](CO)NC(=O)[C@H](Cc1ccc(O)cc1)NC(=O)[C@H](CC(=O)O)NC(=O)[C@H](CO)NC(=O)[C@@H](NC(=O)[C@H](Cc1ccccc1)NC(=O)[C@@H](NC(=O)CNC(=O)[C@H](CCC(=O)O)NC(=O)CCNC(=O)C(C)(C)c1cc(F)cc(C(=O)O)c1)[C@@H](C)O)[C@@H](C)O)[C@@H](C)CC)[C@@H](C)CC)C(C)C)C(=O)N[C@@H](C)C(=O)NCC(=O)NCC(=O)N1CCC[C@H]1C(=O)N[C@@H](CO)C(=O)N[C@@H](CO)C(=O)NCC(=O)N[C@@H](C)C(=O)N1CCC[C@H]1C(=O)N1CCC[C@H]1C(=O)N1CCC[C@H]1C(=O)N[C@@H](CO)C(N)=O` [Compound 139] ({X9-βAla}-EGTFTSDYSI[Aib]LDKIAQK([AEEA-AEEA-γGlu-C20 diacid])AFVQWLIAGGPSSGAPPPS-NH2), the EC50 in assay [1] was 0.001 to 0.01 µM; in assay [2], 0.01 to 0.1 µM; in assay [3], over 1 µM; in assay [4] it was over 1 µM. Further, the Emax came out at 102% in assay [1] and 109% in assay [2].
